Entries after “also recorded” stand apart in the source; their conditions may differ.
Experiments:
ANT = target: T1, ANT (Mus musculus, UniProt P48962); experiment: Whole-IMM patch-clamp recording of H+ current (IH) in mitoplasts; assay type: biochemical, mice; details: for ANT-mediated H+ current (IH), regulators: skeletal muscle mitoplast, 2 μM AA, then 1 mM bath ADP, step from 0 to -160 mV
T1 construct: functional analysis of mitochondrial ion channels and transporters in their native membrane environment; from tissue; host or cells: heart mitoplasts (WT and ANT1-/- mice); skeletal muscle mitoplasts
T1 sequence (P48962 2-298): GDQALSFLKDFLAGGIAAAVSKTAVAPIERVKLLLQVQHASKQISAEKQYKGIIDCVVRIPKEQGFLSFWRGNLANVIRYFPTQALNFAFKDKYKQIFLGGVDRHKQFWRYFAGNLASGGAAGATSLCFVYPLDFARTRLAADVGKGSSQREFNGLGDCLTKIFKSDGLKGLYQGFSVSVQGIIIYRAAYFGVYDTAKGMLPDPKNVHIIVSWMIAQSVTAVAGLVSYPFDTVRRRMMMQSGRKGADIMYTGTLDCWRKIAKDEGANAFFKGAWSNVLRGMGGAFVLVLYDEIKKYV
Description: FIG. 3A-B is a pair of schematic diagrams depicting a mitochondrial patch-clamp. (A) Preparation of mitoplasts (vesicles of the whole IMM): (1) Isolation of mitochondria from cell lysate by centrifugation; (2) OMM removal using a low-pressure French press; (3) isolated mitoplasts in a KCl solution. Remnants of the OMM (arrow) are attached to the IMM. (B) Patch-clamp recording from mitoplasts. After formation of the gigaohm seal (mitoplast-attached configuration), the membrane patch under the pipette can be destroyed by high-amplitude voltage pulses to form a whole-mitoplast configuration for recording currents (I) across the whole IMM. Alternatively, the patch pipette can be withdrawn from the mitoplast to form an inside-out mode for recording single-channel activity.
FIG. 4 is a series of graphs (upper panels) and a schematic diagram (lower panel) showing regulators of ANT-mediated H^+ current (IH). […] Control current is shown in black. Middle panel: IH time course of the left panel. Skeletal muscle mitoplast. IH amplitudes were measured upon stepping from 0 to −160 mV. Right panel: ADP inhibition of IH in points 2 and 3. Remaining IH measured at −160 mV is shown as a percentage of control, n=8. Explanation of transient IH inhibition by cytosolic adenine nucleotides. ANT in c-state, with fatty acid (FA) anion in the translocation pathway, mediates IH (I). Cytosolic ADP^3− binds in c-state and expels FA anion/blocks translocation pathway, leading to IH inhibition (2). Upon ANT conformation change, ADP dissociates into matrix (pipette) solution (2 and 3). FA anion re-associates with ANT in m-state, restoring IH (4 and 5). Cytosolic ADP cannot inhibit IH while AAC is in m-state (5). Preliminary data from (Bertholet, A. M. Chouchani., E. T.; Kazak, L.; Angelin, A.; Fedorenko, A.; Long, J. Z.; Vidoni, S.; Garrity, R.; Cho, J.; Terada, N.; Wallace, D.C.; Spiegelman, B. M.; and Kirichok, Y. Proton Transport is an Integral Function of the Mitochondrial ADP/ATP Carrier Nature July; 571(7766):515-520 (2019)).
Right panel: IH current densities at −160 mV for WT and ANT1^−/− mitoplasts. b, Representative currents induced by 50 μM DNP in WT and ANT1^−/− mitoplasts of heart. Right panel: IH current densities induced by 50 and 200 μM DNP at −160 mV in WT and ANT1^−/− mitoplasts.
We employed direct patch-clamp recording from vesicles of the whole intact inner mitochondrial membrane (IMM; so-called mitoplasts, FIG. 3), which allow high-resolution functional analysis of mitochondrial ion channels and transporters in their native membrane environment^10,36,37. […]
We recorded DNP-induced IH in heart of ANT1-deficient mice (ANT1 is the dominant isoform of ANT in this tissue).

human sperm mitochondria = experiment: Human sperm mitochondrial membrane potential (MMP) assessment with MitoRed; assay type: cell-based; details: 15 minutes incubation, 1 μM NEN or 0.75 μM BAM15, 45 nM MitoRed fluorescence
Method: (§1) Samples from each condition (at least 100 of sperm midpieces per condition) were then assessed for fluorescence intensity measured with 45 nM MitoRed, which is a cell membrane permeable rhodamine-based dye. MitoRed localizes to mitochondria, and emits red fluorescence. The interaction of Mito Red with mitochondria depends on the membrane potential of the mitochondria. Uncoupled mitochondria emit less fluorescence. Data are standard boxplots, as in (A). C) Effect of sMU on human capacitated sperm hyperactivated motility. Cells were capacitated as described (11) for 4 hours. 4 μM Progesterone was added 2 minutes before imaging to trigger hyperactivation (HA). Cells were assessed as either Hyperactivated or Not Hyperactivated. N>45 cells. Error bars represent 95% CI calculated through the Wilson/Brown method.

human sperm = experiment: Human sperm basal beat frequency; assay type: cell-based; details: for sperm beat frequency / motility, result in words: human sperm, 1 μM NEN
Method: as §1, with “A) Human sperm were purified by swim-up method and their basal beat frequency (BF, in Hz) was measured as described in (Mannowetz, N., Naidoo, N. M., Choo, S. A., Smith, J. F. & Lishko, P. V. Slol is the principal potassium channel of human spermatozoa. eLife 2, e01009, doi:10.7554/eLife.01009 (2013)) in control HS solution ((1); in the presence of vehicle control ((2); […]. X's represent the mean of the sample, and dots represent individual data points. B) Human sperm mitochondrial membrane potential (MMP) assessment. Human sperm were incubated for 15 minutes in the presence of 0.1% DMSO (vehicle control), in the presence of 1 μM NEN or 0.75 μM […]. Samples” for “Samples”

human capacitated sperm = experiment: Hyperactivated motility of capacitated human sperm triggered by progesterone; assay type: cell-based; details: capacitated 4 hours; 4 μM progesterone; concentrations as low as 1 μM
Method: A) Human sperm were purified by swim-up method and their basal beat frequency (BF, in Hz) was measured as described in (Mannowetz, N., Naidoo, N. M., Choo, S. A., Smith, J. F. & Lishko, P. V. Slol is the principal potassium channel of human spermatozoa. eLife 2, e01009, doi:10.7554/eLife.01009 (2013)) in control HS solution ((1); in the presence of vehicle control ((2); […]. X's represent the mean of the sample, and dots represent individual data points. B) Human sperm mitochondrial membrane potential (MMP) assessment. Human sperm were incubated for 15 minutes in the presence of 0.1% DMSO (vehicle control), in the presence of 1 μM NEN or 0.75 μM […]. Samples from each condition (at least 100 of sperm midpieces per condition) were then assessed for fluorescence intensity measured with 45 nM MitoRed, which is a cell membrane permeable rhodamine-based dye. MitoRed localizes to mitochondria, and emits red fluorescence. The interaction of Mito Red with mitochondria depends on the membrane potential of the mitochondria. Uncoupled mitochondria emit less fluorescence. Data are standard boxplots, as in (A). C) Effect of sMU on human capacitated sperm hyperactivated motility. Cells were capacitated as described (11) for 4 hours. […] Cells were assessed as either Hyperactivated or Not Hyperactivated. […] Error bars represent 95% CI calculated through the Wilson/Brown method.

SMILES	ANT-mediated H+ current (IH), regulators (ANT)	sperm mitochondrial uncoupling (sMU) as assessed by mitochondrial depolarization (human sperm mitochondria)	sperm beat frequency / motility, result in words (human sperm)	hyperactivation (hyperactivated motility) (human capacitated sperm)	further results
Nc1ncnc2c1ncn2[C@@H]1O[C@H](COP(=O)(O)OP(=O)(O)O)[C@@H](O)[C@H]1O [ADP]	transient inhibition				
C=C1[C@@H]2CC[C@H]3[C@]4(C)C[C@H](O[C@@H]5O[C@H](CO)[C@@H](OS(=O)(=O)O)[C@H](OS(=O)(=O)O)[C@H]5OC(=O)CC(C)C)CC(C(=O)O)(C(=O)O)[C@H]4CC[C@]3(C2)[C@H]1O [CATR, carboxyatractyloside]					inhibition of IH mediated by ANT (ANT; whole-IMM patch-clamp, classical ANT inhibitor): blocked
O=[N+]([O-])c1ccc(O)c([N+](=O)[O-])c1 [DNP, 2,4-dinitrophenol]		uncouple sperm mitochondria			proton leak (IH) via ANT induced by uncoupler (ANT; whole-IMM patch-clamp, 50 and 200 μM DNP, heart mitoplasts WT and ANT1-/-, -160 mV): strongly and specifically activates proton leak via ANT; also recorded: primarily depends on ANT
NCCO.O=C(Nc1ccc([N+](=O)[O-])cc1Cl)c1cc(Cl)ccc1O [NEN, niclosamide ethanolamine]		uncouples human sperm mitochondria; also recorded: strong sMU	significantly decreases	significantly decreases	
CCCCC/C=C\C/C=C\C/C=C\C/C=C\CCCC(=O)O [arachidonic acid]	activated				
O=C(Nc1ccc([N+](=O)[O-])cc1Cl)c1cc(Cl)ccc1O [niclosamide]		uncouple sperm mitochondria	significantly decreases sperm motility	inhibited hyperactivation	sperm beat frequency (human sperm; human sperm purified by swim-up, decreased from 14 Hz, concentrations as low as 1 μM): 6 Hz; sperm mitochondrial uncoupling (sMU) as assessed by mitochondrial depolarization (human sperm mitochondria; listed as Niclosamide): uncouples mitochondria

From US20210369652A1, “Nonhormonal Unisex Contraceptives” (The Regents of the University of California, priority 2019, published 2021)
